Data taken from patent publication US20230127345A1, “SELENOGALACTOSIDE COMPOUNDS FOR THE PREVENTION AND TREATMENT OF DISEASES ASSOCIATED WITH GALECTIN AND THE USE THEREOF” (GALECTIN SCIENCES, LLC, priority 2016, published 2023).

Key:
Galectin-3 [1] = biological target: T1, Galectin-3 (Homo sapiens, UniProt P17931); assay: Fluorescent polarization assay with fluorescent ligand; type: binding; details: for inhibition of Galectin-3 CRD specific fluorescent-ligand: Fluorescent polarization, inhibition curves
Target sequence in this assay (P17931 whole entry): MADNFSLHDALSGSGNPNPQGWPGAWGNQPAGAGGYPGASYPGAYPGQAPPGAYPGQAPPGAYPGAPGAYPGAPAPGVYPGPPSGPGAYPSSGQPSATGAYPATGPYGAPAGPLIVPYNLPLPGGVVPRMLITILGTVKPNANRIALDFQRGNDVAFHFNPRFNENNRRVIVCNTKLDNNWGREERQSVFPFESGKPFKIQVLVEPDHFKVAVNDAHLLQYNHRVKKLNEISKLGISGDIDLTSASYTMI

HTB-38 cells = assay: Cell culture viability, HTB-38; type: cell-based; details: HTB-38, exposed over 3 days in standard growth media
Description: Procedure for HTB-38 Cells ([…]) was as follow:
1. HTB-38 cells were resuspended in culture media containing 8 ng/ml h-IFN-gamma, 4× Pen/Strep and 10% Fetal Bovine Serum (Gibco lot# 1260930). 2. Cells were transferred at 100μl/well in assay plate (4,000-10,000 cells/well, passage# 4-30). 3. Tested compound was diluted serially in assay media as above, usually in range of 100 μg/ml to 20 ng/mL 4. 100 μl/well serial diluted compound was added in duplicate to cells. Final volume of each well was 200 μl, containing 4 ng/ml h-IFN-gamma, 2× Pen/Strep, 5. Cells were Incubate 60-90 hours at 37° C. 6. 20 μl of Promega Substrate [CellTiter 96 Aqueous One Solution] Reagent was added to each well. 7. Cells were incubated at 37° C. for 4-8 hrs and read OD at 490 nm.
(§1) Cells were exposed to the G-625 over 3 days in standard growth media.

MCF-7 cells = assay: Cell culture viability, MCF-7; type: cell-based; details: MCF-7, exposed over 3 days in standard growth media
Description: Procedure for MCF-7 Cells ([…]) was as follow:
1. MCF-7 cells were resuspended in culture media containing 4× Pen/Strep and 0.25% Fetal Bovine Serum (Gibco lot# 1202161). 2. 100 ul media was added with approximately 4,000-10,000 cells/well, passage # 5 up to 30) and cells were incubated for at least 24 hrs at 37° C. 3. Tested compound was diluted serially in assay media as above, usually at a range of 100 μg/ml to 20 ng/mL 4. […] serial diluted compound was added in duplicate to cells in assay plate. Final volume of each well was […], (containing 2× Pen/Strep, 0.25% FBS and compound as indicated 5. Cells were incubated 60-80 hours at 37° C. 6. […] of Promega Substrate [CellTiter 96 Aqueous One Solution] Reagent was added to each well. 7. Cells were incubated 37° C. for 4-8 hrs and read OD at 490 nm.
as §1

[2] = biological target: Galectin 1 and integrin aBV6 (Homo sapiens, UniProt P09382); assay: ELISA format with pairs of galectins and integrins; type: biochemical; details: FIG. 15
Galectin-3 [3] = biological target: T1, Galectin-3; assay: ELISA of Galectin-3 binding inhibition (anti-Galectin-3 antibodies)
From the text: (§2) Experiments have been performed to evaluate the physical interaction of galectin proteins with these various biological ligands mediating cellular functions.
Target sequence in this assay (P17931 whole entry): as above

[4] = biological target: Galectin-9 and integrin aMB2 (Homo sapiens, UniProt O00182); assay: ELISA format with pairs of galectins and integrins; type: biochemical; details: FIG. 15
Galectin-3 [5] = assay: Galectin-3 expression in TGFb1 stimulated LX-2 stellate cells, flow cytometry; type: cell-based; details: TGFb1, 5 days serum starved stimulated LX-2 cells
From the text: TGFb1 stimulates hepatic stellate cells into the fibrogenesis pathway leading to secretion of collagen and other fibrosis biomarkers. […] While it is known that lactose has binding affinity to Gal-3, galactose lacks this affinity. […] The result confirmed this hypothesis.

[6] = biological target: Gal-3/integrins (αVβ3, αVβ6, αMβ2) (Homo sapiens, UniProt P17931); assay: gal-3/integrin interaction ELISA assay; type: biochemical; details: compared with TD-139 (G240); FIG. 10, 11A-11C
From the text: as §2

MCP-1 = assay: In-vitro inflammatory model, MCP-1 in endotoxin stressed THP-1 monocytes; type: cell-based; details: THP-1 stimulated with endotoxin for 5 days
Description: A model of macrophage polarization was set up, starting from THP-1 monocytes culture which is differentiated into inflammatory macrophages using PMA (Phorbol 12-myristate 13-acetate) for 2-4 days. Once differentiated (MO macrophages), the macrophages were induced with LPS or LPS and IFN-gamma for macrophage activation (M1) to inflammatory stage for 1-3 days. Array of cytokines and chemokines were analyzed to confirm the polarization of THP-1-derived macrophages to inflammatory stage. The impact of the anti-galectin 3 compounds on macrophage polarization was assessed first by monitoring cell viability using a colorimetric method (using a tetrazolium reagent) to determine the number of viable cells in proliferation or cytotoxicity assays (Promega, The CellTiter 96® AQueous One Solution Cell Proliferation Assay which contains a novel tetrazolium compound [3-(4,5-[…])-5-(3-carboxymethoxyphenyl)-2-(4-sulfophenyl)-2H-tetrazolium, inner salt; MTS] and an electron coupling reagent (phenazine ethosulfate; PES)) and inflammatory stage evaluated by a quantitatively measure of the chemokine Monocyte Chemoattractant Protein-1 (MCP-1/CCL2), a key protein that regulates migration and infiltration of monocytes/macrophages in cellular process of inflammation. Follow-up testing for the expression and secretion of other cytokines and chemokines were done for leading active compounds. […]

[7] = biological target: gal-3 with Integrin (aMB2) (Homo sapiens, UniProt P17931); assay: gal-3/integrin interaction ELISA, Integrin (aMB2); type: biochemical; details: FIG. 11D and 11E
[8] = pulmonary administration; cited from earlier work
Galectin-3 [9] = biological target: T1, Galectin-3; details: cited from earlier work
Target sequence in this assay (P17931 whole entry, species assumed): as the sequence (P17931 whole entry) above

Chain of gal-3 with Integrin (aMB2) (P17931 whole entry): as above
Chain of Galectin-9 and integrin aMB2 (O00182 whole entry, species assumed): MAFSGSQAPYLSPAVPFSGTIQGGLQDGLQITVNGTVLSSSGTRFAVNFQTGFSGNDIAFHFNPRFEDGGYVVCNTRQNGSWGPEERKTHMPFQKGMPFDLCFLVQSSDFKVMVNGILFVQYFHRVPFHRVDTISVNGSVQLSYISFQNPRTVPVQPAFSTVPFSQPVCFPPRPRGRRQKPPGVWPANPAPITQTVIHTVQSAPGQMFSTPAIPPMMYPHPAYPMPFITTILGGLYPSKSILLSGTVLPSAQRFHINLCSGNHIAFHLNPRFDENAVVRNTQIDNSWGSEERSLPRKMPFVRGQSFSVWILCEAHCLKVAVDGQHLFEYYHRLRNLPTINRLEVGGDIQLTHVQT
Chain of Gal-3/integrins (αVβ3, αVβ6, αMβ2) (P17931 2-250 limits assumed): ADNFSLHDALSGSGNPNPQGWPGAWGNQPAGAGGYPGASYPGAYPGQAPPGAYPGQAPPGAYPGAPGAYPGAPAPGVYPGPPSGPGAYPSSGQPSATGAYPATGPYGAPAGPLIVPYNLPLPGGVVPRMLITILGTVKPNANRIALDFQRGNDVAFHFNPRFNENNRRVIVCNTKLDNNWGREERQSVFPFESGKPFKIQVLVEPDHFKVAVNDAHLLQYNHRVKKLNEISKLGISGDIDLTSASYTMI
Chain of Galectin 1 and integrin aBV6 (P09382 whole entry, species assumed): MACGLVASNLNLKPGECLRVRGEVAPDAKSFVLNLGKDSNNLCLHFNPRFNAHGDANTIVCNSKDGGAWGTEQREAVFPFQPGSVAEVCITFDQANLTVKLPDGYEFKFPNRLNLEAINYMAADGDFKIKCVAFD

OC[C@H]1O[C@@H]([Se][C@@H]2O[C@H](CO)[C@H](O)[C@H](n3cc(-c4cccc(F)c4)nn3)[C@H]2O)[C@H](O)[C@@H](n2cc(-c3cccc(F)c3)nn2)[C@H]1O [G-625, beta-D-Galactopyranoside, 3-deoxy-3-(4-(3-fluorophenyl)-1H-1,2,3-triazol-1-yl)-beta-D-galactopyranosyl 3-deoxy-3-(4-(3-fluorophenyl)-1H-1,2,3-triazol-1-yl)-1-seleno-]
IC50 (Galectin-3 [1]): 259 nM | inhibition of Galectin-3 CRD specific fluorescent-ligand (Galectin-3 [1]): twice better inhibitor then G-240 (TD-139) | cytotoxicity (cell culture viability) (HTB-38 cells): no cytotoxicity | cytotoxicity (cell culture viability) (MCF-7 cells): no cytotoxicity | inhibition of interaction between Galectin 1 and integrin aBV6 [2]: significantly inhibited | IC50 (Galectin-3 [3]): 14.4 nM | inhibition of interaction between Galectin-9 and integrin aMB2 [4]: significantly inhibited | galectin-3 expression (Galectin-3 [5]): enhanced activity of G-625 versus G-240 | galectin-3 expression (Galectin-3 [5]; listed as G625): inhibition of galectin-3 expression | inhibition of Gal-3/integrins [6]: more potent inhibitor of Gal-3/integrins than TD-139 (G240) | secretion of MCP-1 (MCP-1): inhibitory effect on the inflammatory stage by reducing the secretion of MCP-1

OCC1OC([Se][Se]C2OC(CO)C(O)C(n3cc(-c4cccc(F)c4)nn3)C2O)C(O)C(n2cc(-c3cccc(F)c3)nn2)C1O (stereo not shown) [G-626]
IC50 (Galectin-3 [1]): 5290 nM | inhibition of Galectin-3 CRD specific fluorescent-ligand (Galectin-3 [1]): showed an inhibitory activity | IC50 (Galectin-3 [3]): 1160 nM | secretion of MCP-1 (MCP-1): inhibitory effect on the inflammatory stage by reducing the secretion of MCP-1

OC[C@H]1O[C@@H]([Se]Cc2ccc(F)c(F)c2)[C@H](O)[C@@H](n2cc(-c3cccc(F)c3)nn2)[C@H]1O [G-656]
inhibition of the interaction of gal-3 with integrin [7]: significantly inhibit

O=C(C[Se][C@@H]1O[C@H](CO)[C@H](O)[C@H](n2cc(-c3cccc(F)c3)nn2)[C@H]1O)c1ccc(F)c(F)c1 [G-662]
inhibition of Galectin-3 CRD specific fluorescent-ligand (Galectin-3 [1]): shown to inhibit the Gal-3 binding | inhibition of the interaction of gal-3 with integrin [7]: significantly inhibit

O=C[C@H](O)[C@@H](O)[C@@H](O)[C@H](O)CO [Galactose, reference compound]
galectin-3 expression (Galectin-3 [5]): should not have any effect

OC[C@H]1O[C@@H](O[C@H]2[C@H](O)[C@@H](O)C(O)O[C@@H]2CO)[C@H](O)[C@@H](O)[C@H]1O (stereo partly shown) [Lactose, reference compound]
galectin-3 expression (Galectin-3 [5]): would have effect (at relatively high concentrations)

OC[C@H]1O[C@@H](S[C@@H]2O[C@H](CO)[C@H](O)[C@H](n3cc(-c4cccc(F)c4)nn3)[C@H]2O)[C@H](O)[C@@H](n2cc(-c3cccc(F)c3)nn2)[C@H]1O [TD-139, beta-D-Galactopyranoside, 3-deoxy-3-(4-(3-fluorophenyl)-1H-1,2,3-triazol-1-yl)-beta-D-galactopyranosyl 3-deoxy-3-(4-(3-fluorophenyl)-1H-1,2,3-triazol-1-yl)-1-thio-]
efficacy in mouse model of lung fibrosis [8]: effective | binding to galectin 3 (Galectin-3 [9]): reported to bind to galectin 3
